Reference: patent EP4803519A1, “NOVEL PRMT5 INHIBITOR AND USE THEREOF” (Shanghai Apeiron Therapeutics Company Limited, priority 2023, dated 2025)

Experiments:
Assay type in all cases: cell-based
[1] = system: HCT-116 MTAP(-/-)deleted cells; assay: Inhibitory activity on proliferation of HCT-116 MTAP(-/-)deleted cells (Cell-Titer Glo); settings: Homo sapiens, 144 h, incubated 6 d, 0-1,000 nM
Method in brief: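 HCT-116 MTAP(-/-) cells in RPMI 1640 with 10% FBS were seeded overnight, then exposed to compound (10 points, 2.5-fold dilutions from 1,000 nM; 0.2% DMSO) for 6 d at 37 °C. Viability was read by CellTiter-Glo luminescence.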

HCT-116 wild-type cells = assay: Inhibitory activity on proliferation of HCT-116 wild-type cells (Cell-Titer Glo); settings: Homo sapiens, 144 h, incubated 6 d, 0-10,000 nM
Method in brief: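 HCT-116 wild-type cells in RPMI-1640 with 10% FBS were plated overnight, then exposed to compound for 6 d at 37°C (0–10,000 nM final, 2.5-fold, 10 points, 0.2% DMSO). Viability was read by Cell-Titer Glo luminescence.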

[2] = system: LU99 MTAP(-/-)deleted cells; assay: Inhibitory activity on proliferation of LU99 MTAP(-/-)deleted cells (Cell-Titer Glo); settings: Homo sapiens, Lu-99, 144 h, incubated 6 d, 0-1,000 nM
Method in brief: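 Log-phase MTAP-deleted LU99 cells in 10%-FBS medium were plated overnight. Compound was then added at final 0–1,000 nM (10 points, 2.5-fold dilution from 1,000 nM) in 0.2% DMSO.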

[3] = system: LU99 MTAP overexpressing cells; assay: Inhibitory activity on proliferation of LU99 MTAP overexpressing cells (Cell-Titer Glo); settings: Homo sapiens, Lu-99, 144 h, incubated 6 d, 0-10,000 nM
Method in brief: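 After overnight seeding, LU99 cells overexpressing MTAP were exposed to compound at 0-10,000 nM (10 points, 2.5-fold dilutions, 0.2% DMSO) for 6 d at 37°C, 5% CO2. Viability read by Cell-Titer Glo luminescence.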

| IC50 [1] [nM] | IC50 (HCT-116 wild-type cells) [nM] | Structure (SMILES) | IC50 [2] [nM] | IC50 [3] [nM] |
| --- | --- | --- | --- | --- |
| 3.7 | 487 | CN(C(=O)c1ccc2nc(N)c3cnn(C)c3c2c1)[C@@H]1COC(C)(C)c2cc(C(F)(F)F)ccc21 [Example 16, (S)-4-amino-N-(1,1-dimethyl-7-(trifluoromethyl)isochroman-4-yl)-N,1-dimethyl-1H-pyrazolo[4,3-c]quinoline-8-carboxamide] | 4.7 | 682 |
| 95.1 | 2840 | CN(C(=O)c1ccc2nc(N)c3ncncc3c2c1)[C@@H]1COC(C)(C)c2cc(C(F)(F)F)ccc21 [Example 36, N-[(4S)-1,1-dimethyl-7-(trifluoromethyl)isochroman-4-yl](5-aminopyrimido[4,5-c]quinolin-9-yl)-N-methylformamide] | 116 | 668 |
| 1090 | 8140 | CN(C(=O)c1ccc2nc(N)c3c(c2c1)CCO3)C1COC(C)(C)c2cc(C(F)(F)F)ccc21 (stereo not shown) [Example 4, 4-Amino-N-(1,1-dimethyl-7-(trifluoromethyl)isochroman-4-yl)-N-methyl-1,2-dihydrofuro[2,3-c]quinoline-8-carboxamide] | 2260 | 3270 |
| 28.2 | 7770 | CN(C(=O)c1cc2c3c(c(N)nc2cn1)COC3)C1COC(C)(C)c2cc(C(F)(F)F)ccc21 (stereo not shown) [Example 5, 4-Amino-N-(1,1-dimethyl-7-(trifluoromethyl)isochroman-4-yl)-N-methyl-1,3-dihydrofuro[3,4-c][1,7]naphthyridine-8-carboxamide] | 37.1 | 4980 |
| 99.4 | 4860 | CN(C(=O)c1ccc2nc(N)c3c(c2c1)CCOC3)[C@@H]1COC(C)(C)c2cc(C(F)(F)F)ccc21 [Example 23] | 79.5 | 3170 |
| 38.4 | 3080 | CC1OCc2c1c(N)nc1cnc(C(=O)N(C)C3COC(C)(C)c4cc(C(F)(F)F)ccc43)cc21 (stereo not shown) [Example 18, 4-Amino-N-(1,1-dimethyl-7-(trifluoromethyl)isochroman-4-yl)-N,3-dimethyl-1,3-dihydrofuro[3,4-c][1,7]naphthyridine-8-carboxamide] | 62.9 | 3970 |
| 15 | 2100 | Cc1nn(C)c2c1c(N)nc1ccc(C(=O)N(C)[C@@H]3COC(C)(C)c4cc(C(F)(F)F)ccc43)cc12 [Example 35, (S)-4-amino-N-(1,1-dimethyl-7-(trifluoromethyl)isochroman-4-yl)-N,1,3-trimethyl-1H-pyrazolo[4,3-c]quinoline-8-carboxamide] | 24.2 | 858 |
| 269 | 5950 | CN(C(=O)c1ccc2nc(N)c3c(c2c1)OCC3)C1COC(C)(C)c2cc(C(F)(F)F)ccc21 (stereo not shown) [Example 6, 4-Amino-N-(1,1-dimethyl-7-(trifluoromethyl)isochroman-4-yl)-N-methyl-2,3-dihydrofuro[3,2-c]quinoline-8-carboxamide] | 355 | 5940 |

Second part, the molecule before the results:

| Structure (SMILES) | IC50 [1] [nM] | IC50 (HCT-116 wild-type cells) [nM] | IC50 [2] [nM] | IC50 [3] [nM] |
| --- | --- | --- | --- | --- |
| CN(C(=O)c1cc2c3c(c(N)nc2cn1)COC3)[C@@H]1COC2(CCC2)c2cc(C(F)(F)F)ccc21 [Example 44, (S)-4-amino-N-methyl-N-(7'-(trifluoromethyl)spiro[cyclobutane-1,1'-isochroman]-4'-yl)-1,3-dihydrofuro[3,4-c][1,7]naphthyridine-8-carboxamide] | 7.9 | 837 | 12.2 | 673 |
| CN(C(=O)c1ccc2nc(N)c3cnn(C)c3c2c1)[C@@H]1COC(C)(C)c2cc(-c3cscn3)ccc21 [Example 42, N-((4S)-1,1-dimethyl-7-(1,3-thiazol-4-yl)isochroman-4-yl)(4-amino-1-methylpyrazolo[4,5-c]quinolin-8-yl)-N-methylformamide] | 4.4 | 1760 | 6.1 | 1140 |
| CN(C(=O)c1ccc2nc(N)c3cnn(C)c3c2c1)C1COC(C)(C)c2cc(C(F)(F)F)ncc21 (stereo not shown) [Example 43, (4-Amino-1-methylpyrazolo[4,5-c]quinolin-8-yl)-N-[1,1-dimethyl-7-(trifluoromethyl)(1,4-dihydro-3H-pyrano[4,5-c]pyridin-4-yl)]-N-methylformamide] | 9.4 | 2130 | 12.3 | 2570 |
| CN(C(=O)c1ccc2nc(N)c3cnn(C)c3c2c1)[C@@H]1COC(C)(C)c2cc(N3CCn4cncc4C3)ccc21 [Example 86, N-((4S)-7-imidazo[5,1-c]piperazin-7-yl-1,1-dimethylisochroman-4-yl)(4-amino-1-methylpyrazolo[4,5-c]quinolin-8-yl)-N-methylformamide] | 21.6 | 3790 | 31 | 7870 |
| CN(C(=O)c1ccc2nc(N)c3cnn(C)c3c2c1)[C@@H]1COC(C)(C)c2nc(C(F)(F)F)ccc21 [Example 50] | 413 | > 10000 | 525 | 7400 |
| CN(C(=O)c1ccc2nc(N)c3cnn(C)c3c2c1)[C@H]1COC(C)(C)c2nc(C(F)(F)F)ccc21 [Example 51] | 3.1 | 447 | 4.9 | 711 |
| CN(C(=O)c1cc2c(cn1)nc(N)c1cnn(C)c12)[C@H]1COC(C)(C)c2cc(C(F)(F)F)ccc21 [Example 27, (R)-4-amino-N-(1,1-dimethyl-7-(trifluoromethyl)isochroman-4-yl)-N,1-dimethyl-1H-pyrazolo[4,3-c][1,7]naphthyridine-8-carboxamide] | 74 | > 10000 | 51.9 | 9590 |
| CN(C(=O)c1cc2c(cc1F)nc(N)c1cnn(C)c12)C1COC(C)(C)c2cc(C(F)(F)F)ccc21 (stereo not shown) [Example 15, 4-Amino-N-(1,1-dimethyl-7-(trifluoromethyl)isochroman-4-yl)-7-fluoro-N,1-dimethyl-1H-pyrazolo[4,3-c]quinoline-8-carboxamide] | 13.6 | 446 | 25.9 | 795 |
